Structures can show the parent of a compound that is named as a salt.

The target in this assay is T1, human GPR4 (Homo sapiens, UniProt P46093).
T1 construct: expressed in transfected cells
T1 sequence (P46093 whole entry): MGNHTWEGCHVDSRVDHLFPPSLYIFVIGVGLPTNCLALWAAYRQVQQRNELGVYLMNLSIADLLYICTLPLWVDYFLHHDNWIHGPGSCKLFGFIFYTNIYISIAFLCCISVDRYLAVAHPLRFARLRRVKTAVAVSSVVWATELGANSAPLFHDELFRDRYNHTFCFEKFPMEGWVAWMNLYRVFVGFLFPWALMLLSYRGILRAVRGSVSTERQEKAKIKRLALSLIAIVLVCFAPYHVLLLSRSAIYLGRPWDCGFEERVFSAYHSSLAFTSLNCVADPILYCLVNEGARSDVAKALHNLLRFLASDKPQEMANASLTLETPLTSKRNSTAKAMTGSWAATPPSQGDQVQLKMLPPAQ
Kind of assay: Cell-based assay for human GPR4 activity (pH-induced cAMP formation, HTRF). Conditions: HeLa cells stably expressing human GPR4, pH-induced cAMP formation. As to the method: a) Cell-Based Assay for Human GPR4 Activity
HeLa cells stably expressing human GPR4 were established by transfecting the cells with a construct containing the human GPR4 coding sequence. The cells were grown in DMEM/HAM's F12 medium supplemented with 10% fetal calf serum (FCS), 100 u/ml penicillin, 100 μg/ml streptomycin and 400 μg/ml G418 and 10 mM Hepes pH 8.0. pH-induced formation of cAMP was determined using the HTRF technology as provided by CisBio Inc. The cells were seeded in 384-well plates and cultured for 24 hours at 37° C., 5% CO2 before performing the assay. Medium was removed and 10 μl buffer A (HBS, 10 mM Hepes, pH 8, 2 mM IBMX) was added. For compound testing, buffer A with 2× concentrated compounds was used. Cells were incubated for 15 min at room temperature. 10 μl buffer B (HBS, 30 mM Hepes, specific pH) was added to reach the appropriate final pH for stimulation (see below) and incubation was continued for 15 min at room temperature. […] HBS: 130 mM NaCl, 0.9 mM NaH2PO4, 5.4 mM KCl, 0.8 mM MgSO4, CaCl2 1.8 mM, 25 mM glucose, 10-30 mM Hepes. Adjustment of HBS buffers: Bf A Bf B Final stimulation pH (1 volume buffer A+1 volume buffer B)
Compounds were diluted from fresh stock solutions at 10 mM in DMSO to 2 mM and then used for serial dilutions in DMSO.
A word on the IC50: it is the midpoint of a concentration-inhibition curve. The low end stands for greater potency in that assay, the high end for weaker potency in that assay. Turning to `CCc1nc2c(C)cc(C)nc2n1Cc1ccc(/C=C/CN2CCN(CCOC)CC2)cc1` [Example 62, 2-Ethyl-3-(4-{(E)-3-[4-(2-methoxy-ethyl)-piperazin-1-yl]-propenyl}-benzyl)-5,7-dimethyl-3H-imidazo[4,5-b]pyridine dihydrochloride], the half-maximal inhibitory concentration (IC50) stood at 552 nM.

`CCOCCN1CCN(C/C=C/c2ccc(Cn3c(CC)nc4c(C)cc(C)nc43)cc2)CC1` [Example 63, 3-(4-{(E)-3-[4-(2-Ethoxy-ethyl)-piperazin-1-yl]-propenyl}-benzyl)-2-ethyl-5,7-dimethyl-3H-imidazo[4,5-b]pyridine] gave an IC50 of 829 nM.

Turning to `CCc1nc2c(C)cc(C)nc2n1Cc1ccc(/C=C/CN2CCN(CCCOC)CC2)cc1` [Example 64, 2-Ethyl-3-(4-{(E)-3-[4-(3-methoxy-propyl)-piperazin-1-yl]-propenyl}-benzyl)-5,7-dimethyl-3H-imidazo[4,5-b]pyridine dihydrochloride], the IC50 was 367 nM.

In turn, `CCc1nc2c(C)cc(C)nc2n1Cc1ccc(/C=C/CN2CCN(CC(=O)N(C)C)CC2)cc1` [Example 65, 2-(4-{(E)-3-[4-(2-Ethyl-5,7-dimethyl-imidazo[4,5-b]pyridin-3-ylmethyl)-phenyl]-allyl}-piperazin-1-yl)-N,N-dimethyl-acetamide] displayed an IC50 of 647 nM.

Consider `CCc1nc2c(C)cc(C)nc2n1Cc1ccc(/C=C/CN2CCN(CCN3CCOCC3)CC2)cc1` [Example 66, 2-Ethyl-5,7-dimethyl-3-(4-{(E)-3-[4-(2-morpholin-4-yl-ethyl)-piperazin-1-yl]-propenyl}-benzyl)-3H-imidazo[4,5-b]pyridine trihydrochloride], for which half-maximal inhibition (IC50) was put at 222 nM. This IC50 is about 2.9-fold lower than that of the compound before.

On to `CCc1nc2c(C)cc(C)nc2n1Cc1ccc(/C=C/CN2CCN(Cc3ccc(OC)c(OC)c3)CC2)cc1` [Example 67, 3-(4-{(E)-3-[4-(3,4-Dimethoxy-benzyl)-piperazin-1-yl]-propenyl}-benzyl)-2-ethyl-5,7-dimethyl-3H-imidazo[4,5-b]pyridine trihydrochloride], for which the half-maximal inhibitory concentration (IC50) was determined as 407 nM.

`CCc1nc2c(C)cc(C)nc2n1Cc1ccc(/C=C/CN2CCN(CCCF)CC2)cc1` [Example 68, 2-Ethyl-3-(4-{(E)-3-[4-(3-fluoro-propyl)-piperazin-1-yl]-propenyl}-benzyl)-5,7-dimethyl-3H-imidazo[4,5-b]pyridine] gave a half-inhibitory concentration (IC50) of 535 nM.

`CCc1nc2c(C)cc(C)nc2n1Cc1ccc(/C=C/CN2CCN(CC)C(C)C2)cc1` (stereo not drawn) [Example 69, 2-Ethyl-3-{4-[(E)-3-(4ethyl-3-methyl-piperazin-1-yl)-propenyl]-benzyl}-5,7-dimethyl-3H-imidazo[4,5-b]pyridine dihydrochloride] returned an IC50 of 201 nM.

The compound `CCc1nc2c(C)cc(C)nc2n1Cc1ccc(/C=C/CN2CCN(C)C[C@@H]2C(C)C)cc1` [Example 70, 2-Ethyl-3-{4-[(E)-3-((S)-2-isopropyl-4-methyl-piperazin-1-yl)-propenyl]-benzyl}-5,7-dimethyl-3H-imidazo[4,5-b]pyridine dihydrochloride] returned an IC50 of 496 nM.

Regarding `CCc1nc2c(C)cc(C)nc2n1Cc1ccc(/C=C/CN2CCN(C(C)C)C(C)C2)cc1` (stereo not drawn) [Example 71, 2-Ethyl-3-{4-[(E)-3-(4-isopropyl-3-methyl-piperazin-1-yl)-propenyl]-benzyl}-5,7-dimethyl-3H-imidazo[4,5-b]pyridine], the midpoint of inhibition, the IC50, lay at 530 nM.

`CCc1nc2c(C)cc(C)nc2n1Cc1ccc(/C=C/CN2CCN(C(C)C)C(CC)C2)cc1` (stereo not drawn) [Example 72, 2-Ethyl-3-{4-[(E)-3-(3-ethyl-4-isopropyl-piperazin-1-yl)-propenyl]-benzyl}-5,7-dimethyl-3H-imidazo[4,5-b]pyridine dihydrochloride] came in with an IC50 of 452 nM.

`CCc1nc2c(C)cc(C)nc2n1Cc1ccc(/C=C/CN2CCN3CCCC3C2C)cc1` (stereo not drawn) [Example 73, 2-Ethyl-5,7-dimethyl-3-{4-[(E)-3-(1-methyl-hexahydro-pyrrolo[1,2-a]pyrazin-2-yl)-propenyl]-benzyl}-3H-imidazo[4,5-b]pyridine dihydrochloride] showed an IC50 of 887 nM. Against the preceding compound, the IC50 is about 2-fold higher.

In turn, `CCc1nc2c(C)cc(C)nc2n1Cc1ccc(/C=C/CN2C[C@H]3C[C@@H]2CN3CC)cc1` [Example 74, 2-Ethyl-3-{4-[(E)-3-((1R,4R)-5-ethyl-2,5-diaza-bicyclo[2.2.1]hept-2-yl)-propenyl]-benzyl}-5,7-dimethyl-3H-imidazo[4,5-b]pyridine] yielded an IC50 of 323 nM.

`CCc1nc2c(C)cc(C)nc2n1Cc1ccc(/C=C/CN2C[C@H]3C[C@@H]2CN3CC(C)C)cc1` [Example 75, 2-Ethyl-3-{4-[(E)-3-((1R,4R)-5-isobutyl-2,5-diaza-bicyclo[2.2.1]hept-2-yl)-propenyl]-benzyl}-5,7-dimethyl-3H-imidazo[4,5-b]pyridine dihydrochloride] yielded a 50% inhibitory concentration (IC50) of 146 nM.

The compound `CCc1nc2c(C)cc(C)nc2n1Cc1ccc(/C=C/CN2C[C@H]3C[C@@H]2CN3CC2CC2)cc1` [Example 76, 3-{4-[(E)-3-((1R,4R)-5-Cyclopropylmethyl-2,5-diaza-bicyclo[2.2.1]hept-2-yl)-propenyl]-benzyl}-2-ethyl-5,7-dimethyl-3H-imidazo[4,5-b]pyridine trihydrochloride] had an IC50 of 111 nM.

Compound `CCc1nc2c(C)cc(C)nc2n1Cc1ccc(/C=C/CN2CCOC(CNC(=O)OC(C)(C)C)C2)cc1` (stereo not drawn) [Example 77, (4-{(E)-3-[4-(2-Ethyl-5,7-dimethyl-imidazo[4,5-b]pyridin-3-ylmethyl)-phenyl]-allyl}-morpholin-2-ylmethyl)-carbamic acid tert-butyl ester] displayed an IC50 of 512 nM.

As for `CCc1nc2c(C)cc(C)nc2n1Cc1ccc(/C=C/CN2CCOC(CN)C2)cc1` (stereo not drawn) [Example 78, C-(4-{(E)-3-[4-(2-Ethyl-5,7-dimethyl-imidazo[4,5-b]pyridin-3-ylmethyl)-phenyl]-allyl}-morpholin-2-yl)-methylamine dihydrochloride], the IC50 stood at 114 nM.

Take `CCc1nc2c(C)cc(C)nc2n1Cc1ccc(/C=C/CN2CCOC(CNC(C)C)C2)cc1` (stereo not drawn) [Example 79, (4-{(E)-3-[4-(2-Ethyl-5,7-dimethyl-imidazo[4,5-b]pyridin-3-ylmethyl)-phenyl]-allyl}-morpholin-2-ylmethyl)-isopropyl-amine]: the IC50 turned out to be 194 nM.

In the case of `CCc1nc2c(C)cc(C)nc2n1Cc1ccc(/C=C/Cn2ccnc2)cc1` [Example 80, 2-Ethyl-3-[4-((E)-3-imidazol-1-yl-propenyl)-benzyl]-5,7-dimethyl-3H-imidazo[4,5-b]pyridine hydrochloride], half-maximal inhibition (IC50) was put at 485 nM. This IC50 is about 2.5-fold higher than that of the compound before.

`CCCc1nc2c(C)cc(C)nc2n1Cc1ccc(/C=C/CN2CCC(N3CCCCC3)CC2)cc1` [Example 82, 1′-{(E)-3-[4-(5,7-Dimethyl-2-propyl-imidazo[4,5-b]pyridin-3-ylmethyl)-phenyl]-allyl}-[1,4′]bipiperidine dihydrochloride] showed an IC50 of 455 nM.

As for `Cc1cc(C)c2nc(C(C)C)n(Cc3ccc(/C=C/CN4CCC(N5CCCCC5)CC4)cc3)c2n1` [Example 83, 1′-{(E)-3-[4-(2-Isopropyl-5,7-dimethyl-imidazo[4,5-b]pyridin-3-ylmethyl)-phenyl]-allyl}-[1,4′]bipiperidinyl dihydrochloride], the half-inhibitory concentration (IC50) is 294 nM.

Consider `Cc1cc(C)c2nc(C3CC3)n(Cc3ccc(/C=C/CN4CCN(C(C)C)CC4)cc3)c2n1` [Example 84, 2-Cyclopropyl-3-{4-[(E)-3-(4-isopropyl-piperazin-1-yl)-propenyl]-benzyl}-5,7-dimethyl-3H-imidazo[4,5-b]pyridine dihydrochloride], for which the IC50 stood at 181 nM.

Compound `CCCCc1nc2c(C)cc(C)nc2n1Cc1ccc(/C=C/CN2CCN(C(C)C)CC2)cc1` [Example 85, 2-Butyl-3-{4-[(E)-3-(4-isopropyl-piperazin-1-yl)-propenyl]-benzyl}-5,7-dimethyl-3H-imidazo[4,5-b]pyridine dihydrochloride] had an IC50 of 834 nM.

`CCCCc1nc2c(C)cc(C)nc2n1Cc1ccc(/C=C/CN2CCC(N3CCCCC3)CC2)cc1` [Example 86, 1′-{(E)-3-[4-(2-Butyl-5,7-dimethyl-imidazo[4,5-b]pyridin-3-ylmethyl)-phenyl]-allyl}-[1,4′]bipiperidine dihydrochloride]: half-maximal inhibition (IC50) was put at 481 nM.

In the case of `Cc1cc(C)c2nc(C(F)(F)F)n(Cc3ccc(/C=C/CN4CCC(N5CCCCC5)CC4)cc3)c2n1` [Example 87, 1′-{(E)-3-[4-(5,7-Dimethyl-2-trifluoromethyl-imidazo[4,5-b]pyridin-3-ylmethyl)-phenyl]-allyl}-[1,4′]bipiperidinyl dihydrochloride], the IC50 is 296 nM.

Turning to `Cc1cc(C)c2nc(C(F)(F)F)n(Cc3ccc(/C=C/CN4CCC(N5CCN(C)CC5)CC4)cc3)c2n1` [Example 88, 5,7-Dimethyl-3-(4-{(E)-3-[4-(4-methyl-piperazin-1-yl)-piperidin-1-yl]-propenyl}-benzyl)-2-trifluoromethyl-3H-imidazo[4,5-b]pyridine trihydrochloride], the IC50 is 199 nM.

`Cc1cc(C)c2nc(C(F)(F)F)n(Cc3ccc(/C=C/CN4CCC(N5CCOCC5)CC4)cc3)c2n1` [Example 89, 5,7-Dimethyl-3-{4-[(E)-3-(4-morpholin-4-yl-piperidin-1-yl)-propenyl]-benzyl}-2-trifluoromethyl-3H-imidazo[4,5-b]pyridine dihydrochloride] showed an IC50 of 182 nM.

These data come from patent US20090291942A1, “IMIDAZO PYRIDINE DERIVATIVES” (priority 2008, published 2009).
